In brackets after ≈: the same amount, converted by molar mass. Activity calls are given as the source filed them. No cut-off for these calls is given here.
Legend:
[1] = Aqueous solubility of compound in PBS at pH 7.4; assay type: physicochemical
Chikungunya virus [2] = experiment: Antiviral activity against CHIKV 181/25 expressing nLuc-capsid gene infected in human MRC5 cells assessed as reduction in viral replication preincubated with cells for 1 hr followed by viral infection measured after 6 hrs post-infection by Nano-glo luciferase assay; assay type: functional, organism-based; conditions: 181/25, MRC5, read-out: pEC50 (converted)
Chikungunya virus [3] = experiment: Inhibition of N-terminal 6-His/SUMO-tagged CHIKV 181/25 nsP2 extracted from Escherichia coli Rosetta 2 at 200 uM preincubated for 30 mins followed by ATP addition measured after 1 hr by ADP-Glo assay relative to control; conditions: time 90.0 min
MRC5 = experiment: Cytotoxicity against human MRC5 cells at 10 to 40 uM by Cell Titer Glo assay; assay type: toxicity, cell-based; conditions: mrc5, 40 µM, dose 10-40 µM
Polyprotein P1234 = Polyprotein P1234 (Chikungunya virus (strain S27-African prototype) (CHIKV), UniProt Q8JUX6); experiment: Inhibition of N-terminal 6-His/SUMO-tagged CHIKV 181/25 nsP2 extracted from Escherichia coli Rosetta 2 preincubated for 30 mins followed by ATP addition measured after 1 hr by ADP-Glo assay
Polyprotein P1234, sequence (Q8JUX6 536-1333 limits assumed): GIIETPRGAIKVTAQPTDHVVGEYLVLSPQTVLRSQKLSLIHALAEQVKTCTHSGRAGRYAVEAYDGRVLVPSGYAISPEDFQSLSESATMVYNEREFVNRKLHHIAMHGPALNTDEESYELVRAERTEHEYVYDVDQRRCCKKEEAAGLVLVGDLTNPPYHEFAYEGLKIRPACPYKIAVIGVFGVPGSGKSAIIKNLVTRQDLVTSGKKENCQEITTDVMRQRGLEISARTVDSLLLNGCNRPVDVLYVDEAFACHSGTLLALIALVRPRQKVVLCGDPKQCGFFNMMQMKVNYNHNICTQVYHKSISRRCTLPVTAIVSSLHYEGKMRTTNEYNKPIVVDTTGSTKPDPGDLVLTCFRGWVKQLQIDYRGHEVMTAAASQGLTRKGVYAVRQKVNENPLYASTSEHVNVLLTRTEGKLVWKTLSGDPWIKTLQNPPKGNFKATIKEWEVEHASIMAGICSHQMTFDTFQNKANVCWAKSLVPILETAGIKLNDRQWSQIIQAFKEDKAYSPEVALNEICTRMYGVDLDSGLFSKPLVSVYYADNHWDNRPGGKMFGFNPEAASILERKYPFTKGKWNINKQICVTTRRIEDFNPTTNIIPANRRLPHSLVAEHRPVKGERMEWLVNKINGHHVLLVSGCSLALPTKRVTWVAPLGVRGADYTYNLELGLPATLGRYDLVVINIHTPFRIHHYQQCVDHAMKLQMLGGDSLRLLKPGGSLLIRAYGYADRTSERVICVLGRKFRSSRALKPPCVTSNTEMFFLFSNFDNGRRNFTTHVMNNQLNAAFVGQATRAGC

Chikungunya virus [4] = experiment: Antiviral activity against CHIKV 181/25 expressing nLuc-capsid gene infected in human MRC5 cells assessed as inhibition of viral replication at 40 uM preincubated with cells for 1 hr followed by viral infection measured after 6 hrs post-infection by Nano-glo luciferase assay relative to control; assay type: functional; conditions: for inhibition at 40 µM: 181/25, MRC5, time 7 hrs; for inhibition: time 7.0 hrs
[5] = Aqueous solubility of compound; assay type: physicochemical; conditions: buffer
[6] = Selectivity ratio of pEC50 for antiviral activity against VEEV expressing nLuc to pEC50 for antiviral activity against CHIKV 181/25 expressing nLuc-capsid gene infected in human MRC5 cells; assay type: functional

SMILES | solubility kinetic [1] | EC50 (Chikungunya virus [2]) | inhibition (Chikungunya virus [3]) | Activity (MRC5) | IC50 (Polyprotein P1234) | inhibition at 40 µM (Chikungunya virus [4]) | inhibition (Chikungunya virus [4]) | solubility [5] | Ratio [6]
O=C(NCC1CCOC2(CCN(C(=O)C3(c4ccccc4)CCCC3)CC2)C1)c1ccccn1 (centres undefined) | 190 µM (≈ 87.7 µg/mL) | 1.58 µM | 90% | Non-toxic | > 39.8 µM | – | – | – | –
CC1(C(=O)N2CCC3(CC2)CC(CNS(C)(=O)=O)CCO3)CCCC1 (centres undefined) | – | > 39.8 µM | inactive | Non-toxic | – | 40% | – | – | –
CS(=O)(=O)NCC1CCOC2(CCN(C(=O)C3(c4ccccc4)CCOCC3)CC2)C1 (centres undefined) | 190 µM (≈ 85.6 µg/mL) | – | inactive | Non-toxic | – | – | inactive | – | –
O=C(NCC1CCOC2(CCN(C(=O)C3(c4ccccc4)CCCC3)CC2)C1)c1ccncc1 (centres undefined) | 170 µM (≈ 78.5 µg/mL) | 10 µM | 70% | Non-toxic | > 39.8 µM | – | – | – | –
CN(C)S(=O)(=O)NCC1CCOC2(CCN(C(=O)C3(c4ccccn4)CCCC3)CC2)C1 (centres undefined) | – | > 39.8 µM | 40% | Non-toxic | > 39.8 µM | 70% | – | – | –
O=C(N1CCC2(CC1)CC(CNS(=O)(=O)c1ccccc1)CCO2)C1(c2ccccc2)CCCC1 (centres undefined) | 1 µM (≈ 0.497 µg/mL) | 3.98 µM | 40% | Non-toxic | > 39.8 µM | – | – | – | –
CNCC1CCOC2(CCN(C(=O)C3(c4ccccc4)CCCC3)CC2)C1 (centres undefined) | 170 µM (≈ 63 µg/mL) | > 39.8 µM | inactive | Non-toxic | – | 60% | – | – | –
CS(=O)(=O)NCC1CCOC2(CCN(C(=O)C3(c4ccccc4)CCCC3)CC2)C1 (centres undefined) | – | 3.16 µM | 40% | Non-toxic | > 39.8 µM | – | – | 240 µM (≈ 104 µg/mL) | 10
CN(C)S(=O)(=O)NCC1CCOC2(CCN(C(=O)C3(c4ccncc4)CCCC3)CC2)C1 (centres undefined) | – | – | inactive | Non-toxic | – | – | inactive | – | –
CN(C)S(=O)(=O)NCC1CCOC2(CCN(C(=O)C(=O)c3ccccc3)CC2)C1 (centres undefined) | 170 µM (≈ 72 µg/mL) | – | inactive | Non-toxic | – | – | inactive | – | –
CS(=O)(=O)NCC1CCOC2(CCN(C(=O)C3(c4ccccc4)CCC3)CC2)C1 (centres undefined) | 160 µM (≈ 67.3 µg/mL) | – | inactive | Non-toxic | – | – | inactive | – | –
CC(C)(C)NC(=O)NCC1CCOC2(CCN(C(=O)C3(c4ccccc4)CCCC3)CC2)C1 (centres undefined) | 170 µM (≈ 77.5 µg/mL) | 10 µM | 80% | Non-toxic | > 39.8 µM | – | – | – | –
COc1cccc(C(=O)NCC2CCOC3(CCN(C(=O)C4(c5ccccc5)CCCC4)CC3)C2)c1 (centres undefined) | 19 µM (≈ 9.32 µg/mL) | 5.01 µM | 70% | Non-toxic | > 39.8 µM | – | – | – | –
CN(C)S(=O)(=O)NCC1CCOC2(CCN(C(=O)C3(c4cccnc4)CCCC3)CC2)C1 (centres undefined) | – | > 39.8 µM | inactive | Non-toxic | – | 50% | – | – | –
CN(CC1CCOC2(CCN(C(=O)C3(c4ccccc4)CCCC3)CC2)C1)C(=O)c1ccccn1 (centres undefined) | 180 µM (≈ 85.6 µg/mL) | 5.01 µM | 80% | Non-toxic | > 39.8 µM | – | – | – | –
NCC1(O)CCOC2(CCN(C(=O)C3(c4ccccc4)CCCC3)CC2)C1 (centres undefined) | 170 µM (≈ 63.3 µg/mL) | > 39.8 µM | inactive | Non-toxic | – | 50% | – | – | –
